The data set in a line: Contact of acid solutions with human skin. The conditions noted are these: solution with a pH of less than 0.5.

This note sets out measurements from patent US9005673B2, “Preservative and additive for food and feed” (priority 2005, dated 2015).

With `O=S(=O)(O)O` [sulfuric acid], the “irritation of a hand put into the solution” value was “an irritation would occur”.
